# Measurements taken from patent US8535942B2, “Glypican-3 (GPC3)-derived tumor rejection antigenic peptides useful for HLA-A2-positive patients and pharmaceutical comprising the same” (Oncotherapy Science, Inc., priority 2005, dated 2013).
# “Also recorded” adds a separate entry of the source. No end group written: not given here.
# System: SK-Hep-1/GPC3 cells
# Experiment: Cytotoxicity test of peptide-induced killer T cells (calcein AM, Terascan VP)
# Type: cell-based, human
# Settings: killer T cells induced with peptide-loaded dendritic cells; targets SK-Hep-1/GPC3 vs SK-Hep-1; E/T ratio 20:1
# Method: Informed consent was obtained from HLA-A2-positive hepatocellular carcinoma patients, who were in therapy at Gastroenterological Surgery, Kumamoto University School of Medicine, and at Hospital East, the National Cancer Center. Thereafter, 30 ml of blood sample was obtained from individual patients, and peripheral blood mononuclear cells were then isolated using Ficoll-Conray density-gradient centrifugation method according to the previously reported method (Nakatsura, T et al., Eur. J. Immunol. 32, 826-836 (2002)).
# From the isolated peripheral blood mononuclear cells, killer T cells were induced by the previously reported method (Monji, M et al., Clin Cancer Res 10, 6047-6057, 2004). First, CD8-positive cells and CD14-positive cells were separated from the peripheral blood mononuclear cells using MACS. The CD14-positive cells were cultured in the presence of GM-CSF (100 ng/ml) and IL-4 (20 ng/ml) for 5 days, so that differentiation of dendritic cells was induced. Thereafter, TNF-α (20 ng/ml) was added thereto for maturation. On the 7th day, each GPC3 peptide (10 μM) was added thereto, and co-culture with CD8-positive cells was then carried out. This antigen stimulation with autologous CD14-positive cell-derived dendritic cells was repeated 3 or 4 times every week, so that peptide-specific killer T cells were induced. During the induction, half a medium was exchanged with a fresh one every two days, and IL-2 was added thereto in a concentration of 10 U/ml.
# The cytotoxic activity of killer T cells was evaluated by a cytotoxic test using Terascan VP. First, target cells were fluorescently labeled with a calcein AM staining solution at 37° C. for 30 minutes. Such cells were co-cultured with killer T cells on a Coster 96-well half area plate, and fluorescently labeled cells were then detected over time, thereby measuring the degree of cytotoxicity. The analysis was carried out using cytotoxicity test computing software CalCT-961 of MINERVA TECH, which was used in a fluorescence method. An experiment was carried out at an E/T ratio of 20:1. […]
row,Sequence,GPC3-specific cytotoxic activity
1,"FVGEFFTDV [GPC3 144-152, FVGEFFTDV]",confirmed; also recorded: exhibited strong cytotoxic activity
2,"RLQPGLKWV [GPC3 44-52, RLQPGLKWV]",confirmed; also recorded: exhibited strong cytotoxic activity
3,"YILGSDINV [GPC3 155-163, YILGSDINV]",confirmed; also recorded: exhibited strong cytotoxic activity
